Results as given in patent publication US20260083844A1, “DOWNREGULATING INOS TO INCREASE CAR-T KILLING” (H. LEE MOFFITT CANCER CENTER AND RESEARCH INSTITUTE INC., priority 2022, published 2026).

Legend:
CAR T cells [1] = test: CAR T cell expansion assay (live cell analysis) in coculture with Eμ-myc cells with or without macrophages; type: cell-based, mouse; conditions: over 48 h
Description: To explore how M2-like macrophages may impact the cellular function of CAR T cells, a syngeneic coculture system was employed (FIG. 2A). […] The BMDMs were differentiated into M2-like macrophages (imMac) by culturing with IL-4 and IL-10 or with media alone without further differentiation to utilize as unpolarized macrophage controls (unMac). The mCherry reporter served as a marker for CAR transduction and CAR T cell expansion.
The expansion of CAR T cells was determined by an Incucyte S3 live cell analysis system (Essen Bioscience). 2×10^4 Eμ-myc cells and 2×10^4 CAR T cells were cocultured in the absence or presence of 0.5×10^4 macrophages (CAR T:Eμ-myc cell:Macrophage=1:1:0.25, unless otherwise indicated in the figure legends) in a 96-well black-walled clear bottom plate in 120 μl of media. Cell images were captured at 4× magnification. The expansion index was calculated by dividing the total integrated red intensity (RCU×μm^2/mm^2) at each time point by the first time point.

CAR T cells [2] = test: Seahorse assay (ECAR, OCR) on CAR T cells from coculture; type: cell-based, mouse; conditions: 48 h coculture in the presence of imMac
Description: (§1) 1×10^6 CAR T cells and 1×10^6 Eμ-myc-GFP-FFL cells were cocultured in the absence or presence of 0.25×10^6 macrophages in a 6-well plate in 6 ml of media for 48 h. After initial coculture, cells were harvested, and T cells were isolated using Mouse T Cell Isolation Kit (STEMCELL Technologies). T cell purity was 100% as tested by flow cytometry. Percentage of CAR-expressing T cells was determined with flow cytometry and were subsequently used for downstream assays.
ECAR and OCR were measured using a Seahorse Extracellular Flux Analyzer (Agilent Technologies). XF96 microplates were coated with CellTak a day before analyses. To assay glycolytic function, T cells were resuspended in glucose-free XF medium supplied with 2 mM L-glutamine and 1 mM sodium pyruvate and seeded at 2×10^5 cells in 180 μl per well. Following incubation in a CO2-free incubator for 60 min at 37° C. for pH stabilization, ECAR was measured in response to 10 mM glucose, 1 μM oligomycin, and 50 mM 2-deoxyglucose. To assay mitochondrial function, T cells were resuspended in XF medium supplied with 2 mM L-glutamine, 1 mM sodium pyruvate, and 10 mM glucose and seeded at 2×10^5 cells in 180 μl per well. Following incubation in a CO2-free incubator for 60 min at 37° C. for pH stabilization, OCR was measured in response to 1 μM oligomycin, 1 μM FCCP, and 0.5 µM rotenone and antimycin.

Eμ-myc cells = test: Luciferase-based killing assay with CAR T cells isolated from initial coculture; type: cell-based, mouse; conditions: for ability of CAR T cells to kill tumor cells: 48 h initial coculture with Eμ-myc cells in presence of NCX-4016 (100 µM) or PNT (50 µM), no macrophages, lysis at 24 h
Description: as §1, with “([…]” for “(STEMCELL”, “T cell purity was 100% as tested by flow cytometry.” left out
2×10^4 Eu-ALL-GFP-FFL cells were cocultured with CAR T cells at different effector-to-target ratios in a 96-well white-walled plate in 100 μl of media. Following incubation, 100 μl luciferase substrate reagent (ONE-Glo Luciferase assay system, Promega) was added to each well. Target cells alone were plated at the same cell density to determine maximum luciferase signals. Emitted luminescence was detected in the microplate reader (GloMax, Promega). Percent lysis was determined as (1-sample signal/maximum signal)×100.

IFN-γ and TNF-α = test: Cytokine secretion assay with CAR T cells isolated from initial coculture; type: cell-based, mouse; conditions: for secretion of effector cytokines IFN-γ and TNF-α by CAR T cells: 48 h initial coculture with Eμ-myc cells in presence of NCX-4016 (100 µM) or PNT (50 μM), no macrophages, supernatants at 24 h
Description: as §1, with “([…]” for “(STEMCELL”, “T cell purity was 100% as tested by flow cytometry.” left out
2×10^4 Eμ-myc cells were cocultured with 2×10^4 CAR T cells in a 96-well plate in a total volume of 100 μl of media. Supernatants were collected and analyzed for IFN-γ and TNF-α secretion using Ella automated immunoassay system (Proteinsimple Bio-techne) according to manufacturer's instructions.

CAR T cells [3] = test: Global metabolomics on CAR T cells from coculture; type: cell-based, mouse; conditions: 48 h coculture with imMac
Description: as §1
Global metabolomic profiling and 13C6-labeled glucose tracing of CAR T cells, 1×10^6 T cells were resuspended in either RPMI-1640 medium (RPMI+10% heat-inactivated dialyzed FBS) or 13C6-glucose substituted RPMI-1640 medium (glucose-free RPMI+10% heat-inactivated dialyzed FBS+11.1 mM ^13C6-glucose). After 4 h incubation, cells were collected, rapidly centrifuged (17,000×g, 10 sec, room temperature), and medium was removed. T cells were washed with 1 ml of ice-cold PBS, and metabolites were extracted with 300 μl of 80% methanol via incubation at −80° C. for 15 min. Samples were centrifuged (17,000×g, 20 min, 4° C.), and supernatants were transferred to an Eppendorf tube and dried in a vacuum evaporator overnight. The dried extracts were resuspended in 20 μl of aqueous 50% methanol, clarified by centrifugation (17,000×g, 20 min, room temperature), and analyzed by LC-HRMS. […]

Eμ-myc B cell tumors = test: Survival of Eμ-myc tumor-bearing Rag1−/− mice treated with CAR T cells; type: in vivo, mouse; conditions: combination of 1928z CAR T cells and L-NIL (20 mg/kg i.p. once per day) compared to 1928z CAR T cells alone
Description: Six-to 10-week-old Rag1/-mice of both sexes were intraperitoneally (i.p.) injected with 3×10^6 Eμ-myc-GFP-FFL cells to generate tumors localized in peritoneal cavity. Tumor engraftment was verified by bioluminescence imaging one day before CAR T cell transfer. Mice were randomized to different treatment groups without differences in pre-treatment tumor load. Seven days after tumor cell inoculation, mice were injected i.p. with 5×10^6 CAR T cells in 300 μl PBS. For survival experiments, L-NIL or PBS was administered i.p. once per day at 20 mg/kg body weight starting on the same day of tumor cell injection. […] Bioluminescence imaging was performed by IVIS Lumina III In Vivo Imaging System (PerkinElmer) with Living Image software (PerkinElmer).

[4] = CAR T cells cocultured with Eμ-myc cells without macrophages
[5] = cocultures of CAR T cells and Eμ-myc cells with imMac

C=C(CC(=O)OCCCCCCCC)C(=O)O [4-OI, 4-octyl itaconate]
CAR T cell expansion (CAR T cells [1]; [4]): impaired CAR T cell expansion

CC(=N)NCCCC[C@H](N)C(=O)O [L-NIL, L-N6-(1-Iminoethyl)-lysine]
glycolytic and oxidative metabolic capabilities of CAR T cells (ECAR, OCR) (CAR T cells [2]): preserved glycolytic and oxidative metabolic capabilities of CAR T cells | capacity of CAR T cells to kill (lyse) tumor cells (Eμ-myc cells; CAR T cells isolated after 48 h initial coculture with imMac, then cocultured with fresh Eμ-myc cells, 24 h): preserved the capacity of CAR T cells to kill tumor cells | production of effector cytokines IFN-γ and TNF-α by CAR T cells (IFN-γ and TNF-α; CAR T cells isolated after 48 h initial coculture with imMac, then cocultured with fresh Eμ-myc cells): preserved | CAR T cell expansion (CAR T cells [1]; [5]): complete rescue of CAR T cell expansion | depletion of F1,6BP, G3P and DHAP in CAR T cells cocultured with imMac (CAR T cells [3]): reversal | survival of tumor-bearing mice (Eμ-myc B cell tumors): significantly improved survival

CC(=O)Oc1ccccc1C(=O)Oc1cccc(CO[N+](=O)[O-])c1 [NCX-4016]
ability of CAR T cells to kill tumor cells (Eμ-myc cells): diminished ability of CAR T cells to kill tumor cells | secretion of effector cytokines IFN-γ and TNF-α by CAR T cells (IFN-γ and TNF-α): diminished | CAR T cell expansion (CAR T cells [1]; [4]): inhibition of CAR T cell expansion

O=NOO [PNT, peroxynitrite]
ability of CAR T cells to kill tumor cells (Eμ-myc cells): diminished ability of CAR T cells to kill tumor cells | secretion of effector cytokines IFN-γ and TNF-α by CAR T cells (IFN-γ and TNF-α): diminished | CAR T cell expansion (CAR T cells [1]; [4]): inhibition of CAR T cell expansion

CC1(C)N([O])C(c2ccc(C(=O)O)cc2)=[N+]([O-])C1(C)C [c-PTIO, carboxyl-PTIO]
CAR T cell expansion (CAR T cells [1]; [5]): partially rescued expansion of CAR T cells

NC(=O)NCCC[C@H](N)C(=O)O [citrulline]
CAR T cell expansion (CAR T cells [1]; [4]): did not impact expansion of CAR T cells

N=C(NO)NCC[C@H](N)C(=O)O [nor-NOHA]
CAR T cell expansion (CAR T cells [1]; cocultures with imMac, physiological arginine concentration (150 μM)): failed to rescue CAR T cell expansion | CAR T cell expansion (CAR T cells [1]; cocultures with imMac, supraphysiological arginine concentration (1.15 mM)): did not restore CAR T cell expansion
